Data published in ChEMBL document CHEMBL1201861, “Genomics of Drug Sensitity in Cancer screening data, Wellcome Trust Sanger Institute”.

Experiments:
Test in all cases: cells
RT-112 = type: functional, cell-based; conditions: Homo sapiens
Description: SANGER: Inhibition of human RT-112 cell growth in a cell viability assay.

G-401 = type: functional, cell-based; conditions: Homo sapiens
Description: SANGER: Inhibition of human G-401 cell growth in a cell viability assay.

OAW-28 = type: functional, cell-based; conditions: Homo sapiens;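 further: growth inhibition of OAW-28 cells, read out with a cell viability assay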
Description: SANGER: Inhibition of human OAW-28 cell growth in a cell viability assay.

AGS = type: functional, cell-based; conditions: Homo sapiens;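 further: growth inhibition of AGS cells, determined with a cell viability assay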
Description: SANGER: Inhibition of human AGS cell growth in a cell viability assay.

T-24 = type: functional, cell-based; conditions: Homo sapiens;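 further: growth inhibition of T-24 cells, read out with a cell viability assay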
Description: SANGER: Inhibition of human T-24 cell growth in a cell viability assay.

MDA-MB-361 = type: functional, cell-based; conditions: Homo sapiens
EFO-21 = type: functional, cell-based; conditions: Homo sapiens;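 further: growth inhibition of EFO-21 cells measured with a viability assay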
Description: SANGER: Inhibition of human EFO-21 cell growth in a cell viability assay.

NCI-H1993 = type: functional, cell-based; conditions: Homo sapiens;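 further: growth inhibition of the cancer cell line, assessed with a cell viability assay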
Description: SANGER: Inhibition of human NCI-H1993 cell growth in a cell viability assay.

UACC-62 = type: functional, cell-based; conditions: Homo sapiens;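 further: growth inhibition of human UACC-62 cells, read out by a cell viability assay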
Description: SANGER: Inhibition of human UACC-62 cell growth in a cell viability assay.

MeWo = type: functional, cell-based; conditions: Homo sapiens;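 further: growth inhibition of MeWo cells, determined by a cell viability readout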
Description: SANGER: Inhibition of human Mewo cell growth in a cell viability assay.

SN12C = type: functional, cell-based; conditions: Homo sapiens;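 further: growth inhibition of human SN12C cells, measured by a cell viability assay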
Description: SANGER: Inhibition of human SN12C cell growth in a cell viability assay.

SNU-423 = type: functional, cell-based; conditions: Homo sapiens
Description: SANGER: Inhibition of human SNU-423 cell growth in a cell viability assay.

P12-Ichikawa = type: functional, cell-based; conditions: Homo sapiens
SW780 = type: functional, cell-based; conditions: Homo sapiens;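 further: growth inhibition of the cells, read out with a cell viability assay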
Description: SANGER: Inhibition of human SW780 cell growth in a cell viability assay.

CWR22R = type: functional, cell-based; conditions: Homo sapiens, 22Rv1;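 further: growth inhibition of 22Rv1 cells, read out with a cell viability assay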
Description: SANGER: Inhibition of human 22RV1 cell growth in a cell viability assay.

SW-620 = type: functional, cell-based; conditions: Homo sapiens;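 further: growth inhibition of human SW-620 cells, measured by a cell viability assay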
Description: SANGER: Inhibition of human SW620 cell growth in a cell viability assay.

EW-22 = type: functional, cell-based; conditions: Homo sapiens;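 further: growth inhibition of the EW-22 cell line, measured with a cell viability readout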
Description: SANGER: Inhibition of human EW-22 cell growth in a cell viability assay.

CAL-72 = type: functional, cell-based; conditions: Homo sapiens;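 further: cell viability assay measuring inhibition of proliferation in the CAL-72 cell line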
Description: SANGER: Inhibition of human CAL-72 cell growth in a cell viability assay.

MIA PaCa-2 = type: functional, cell-based; conditions: Homo sapiens;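 further: growth inhibition of MIA PaCa-2 cells, read out with a cell viability assay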
Description: SANGER: Inhibition of human MIA-PaCa-2 cell growth in a cell viability assay.

MEL-HO = type: functional, cell-based; conditions: Homo sapiens
Description: SANGER: Inhibition of human MEL-HO cell growth in a cell viability assay.

Capan-2 = type: functional, cell-based; conditions: Homo sapiens;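 further: Capan-2 cell growth inhibition, read out with a viability assay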
Description: SANGER: Inhibition of human Capan-2 cell growth in a cell viability assay.

HT1197 = type: functional, cell-based, HT-1197; conditions: Homo sapiens
Description: SANGER: Inhibition of human HT-1197 cell growth in a cell viability assay.

RO82-W-1 = type: functional, cell-based; conditions: Homo sapiens;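 further: growth inhibition of human RO82-W-1 cells, measured with a cell viability assay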
Description: SANGER: Inhibition of human RO82-W-1 cell growth in a cell viability assay.

NCI-H1693 = type: functional, cell-based; conditions: Homo sapiens;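 further: growth inhibition of the human cell line, read out with a cell viability assay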
Description: SANGER: Inhibition of human NCI-H1693 cell growth in a cell viability assay.

KYSE-410 = type: functional, cell-based; conditions: Homo sapiens;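 further: growth inhibition of KYSE-410 cells, measured through a cell viability readout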
Description: SANGER: Inhibition of human KYSE-410 cell growth in a cell viability assay.

A204 = type: functional, cell-based; conditions: Homo sapiens;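 further: growth inhibition of human A204 cells, read out with a cell viability assay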
Description: SANGER: Inhibition of human A204 cell growth in a cell viability assay.

SW1417 = type: functional, cell-based; conditions: Homo sapiens;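 further: growth inhibition of human SW1417 cells, read out with a cell viability assay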
Description: SANGER: Inhibition of human SW1417 cell growth in a cell viability assay.

A2058 = type: functional, cell-based; conditions: Homo sapiens;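 further: reduction of A2058 cell growth, read out with a viability assay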
Description: SANGER: Inhibition of human A2058 cell growth in a cell viability assay.

HT-3 = type: functional, cell-based; conditions: Homo sapiens;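 further: growth inhibition measured with a cell viability readout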
Description: SANGER: Inhibition of human HT-3 cell growth in a cell viability assay.

CAKI-1 = type: functional, cell-based; conditions: Homo sapiens;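 further: growth inhibition of CAKI-1 cells, measured by a cell viability assay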
Description: SANGER: Inhibition of human CAKI-1 cell growth in a cell viability assay.

Calu-3 = type: functional, cell-based; conditions: Homo sapiens;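 further: growth inhibition of human Calu-3 cells, determined with a cell viability assay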
Description: SANGER: Inhibition of human Calu-3 cell growth in a cell viability assay.

BT-20 = type: functional, cell-based; conditions: Homo sapiens;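 further: cell viability assay measuring suppression of growth in human BT-20 cells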
Description: SANGER: Inhibition of human BT-20 cell growth in a cell viability assay.

HEC-1 = type: functional, cell-based; conditions: Homo sapiens;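 further: growth inhibition of the cell line, read out with a cell viability assay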
Description: SANGER: Inhibition of human HEC-1 cell growth in a cell viability assay.

GMS-10 = type: functional, cell-based; conditions: Homo sapiens;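 further: growth inhibition of GMS-10 cells, read out as cell viability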
Description: SANGER: Inhibition of human GMS-10 cell growth in a cell viability assay.

SJRH30 = type: functional, cell-based; conditions: Homo sapiens;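 further: growth inhibition of human SJRH30 cells, read out with a cell viability assay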
Description: SANGER: Inhibition of human SJRH30 cell growth in a cell viability assay.

SK-OV-3 = type: functional, cell-based; conditions: Homo sapiens;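 further: growth inhibition of SK-OV-3 human cells, read out with a cell viability assay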
Description: SANGER: Inhibition of human SK-OV-3 cell growth in a cell viability assay.

HSC-3 = type: functional, cell-based; conditions: Homo sapiens
Description: SANGER: Inhibition of human HSC-3 cell growth in a cell viability assay.

M059J = type: functional, cell-based; conditions: Homo sapiens;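 further: growth inhibition of M059J cells, read out with a cell viability assay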
Description: SANGER: Inhibition of human M059J cell growth in a cell viability assay.

BHY = type: functional, cell-based; conditions: Homo sapiens;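 further: cell growth inhibition read out by a viability assay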
Description: SANGER: Inhibition of human BHY cell growth in a cell viability assay.

LN-405 = type: functional, cell-based; conditions: Homo sapiens
Description: SANGER: Inhibition of human LN-405 cell growth in a cell viability assay.

Hs-578T = type: functional, cell-based; conditions: Homo sapiens
Description: SANGER: Inhibition of human Hs-578-T cell growth in a cell viability assay.

TYK-nu = type: functional, cell-based; conditions: Homo sapiens;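 further: growth inhibition of human TYK-nu cells, read out by a cell viability assay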
Description: SANGER: Inhibition of human TYK-nu cell growth in a cell viability assay.

MDA-MB-175-VII = type: functional, cell-based; conditions: Homo sapiens

O=C1NC(=O)c2c1c(-c1ccccc1Cl)cc1[nH]c3ccc(O)cc3c21
IC50 (RT-112): > 2 µM | IC50 (G-401): > 2 µM | IC50 (OAW-28): > 2 µM | IC50 (AGS): > 2 µM | IC50 (T-24): > 2 µM | IC50 (MDA-MB-361): > 2 µM | IC50 (EFO-21): > 2 µM | IC50 (NCI-H1993): > 2 µM | IC50 (UACC-62): > 2 µM | IC50 (MeWo): > 2 µM | IC50 (SN12C): > 2 µM | IC50 (SNU-423): > 2 µM | IC50 (P12-Ichikawa): 0.482 µM | IC50 (SW780): > 2 µM | IC50 (CWR22R): > 2 µM | IC50 (SW-620): > 2 µM | IC50 (EW-22): > 2 µM | IC50 (CAL-72): 1.82 µM | IC50 (MIA PaCa-2): > 2 µM | IC50 (MEL-HO): > 2 µM | IC50 (Capan-2): > 2 µM | IC50 (HT1197): > 2 µM | IC50 (RO82-W-1): > 2 µM | IC50 (NCI-H1693): > 2 µM | IC50 (KYSE-410): 1.56 µM | IC50 (A204): > 2 µM | IC50 (SW1417): > 2 µM | IC50 (A2058): > 2 µM | IC50 (HT-3): > 2 µM | IC50 (CAKI-1): > 2 µM | IC50 (Calu-3): > 2 µM | IC50 (BT-20): > 2 µM | IC50 (HEC-1): > 2 µM | IC50 (GMS-10): > 2 µM | IC50 (SJRH30): > 2 µM | IC50 (SK-OV-3): > 2 µM | IC50 (HSC-3): 1.18 µM | IC50 (M059J): > 2 µM | IC50 (BHY): 1.15 µM | IC50 (LN-405): > 2 µM

O=C(NCCCNc1nc(Nc2cccc(NC(=O)N3CCCC3)c2)ncc1I)c1cccs1 [BX-795]
IC50 (RT-112): 4.01 µM | IC50 (G-401): 2.56 µM | IC50 (OAW-28): > 5 µM | IC50 (Hs-578T): 2.42 µM | IC50 (AGS): 2.56 µM | IC50 (T-24): > 5 µM | IC50 (MDA-MB-361): > 5 µM | IC50 (EFO-21): > 5 µM | IC50 (NCI-H1993): > 5 µM | IC50 (UACC-62): > 5 µM | IC50 (MeWo): > 5 µM | IC50 (SN12C): > 5 µM | IC50 (SNU-423): 3.91 µM | IC50 (P12-Ichikawa): 1.18 µM | IC50 (SW780): 3.26 µM | IC50 (CWR22R): > 5 µM | IC50 (SW-620): > 5 µM | IC50 (EW-22): 3.91 µM | IC50 (CAL-72): 4.22 µM | IC50 (MIA PaCa-2): > 5 µM | IC50 (MEL-HO): > 5 µM | IC50 (Capan-2): > 5 µM | IC50 (HT1197): > 5 µM | IC50 (RO82-W-1): 4.34 µM | IC50 (NCI-H1693): > 5 µM | IC50 (KYSE-410): > 5 µM | IC50 (A204): 1.15 µM | IC50 (TYK-nu): 2.93 µM | IC50 (SW1417): > 5 µM | IC50 (A2058): 2.98 µM | IC50 (HT-3): > 5 µM | IC50 (CAKI-1): 2.28 µM | IC50 (Calu-3): > 5 µM | IC50 (BT-20): > 5 µM | IC50 (HEC-1): 4.09 µM | IC50 (MDA-MB-175-VII): > 5 µM | IC50 (GMS-10): 4.12 µM | IC50 (SJRH30): > 5 µM | IC50 (SK-OV-3): > 5 µM | IC50 (HSC-3): 1.44 µM | IC50 (M059J): 1.38 µM | IC50 (BHY): > 5 µM | IC50 (LN-405): > 5 µM

NC1(c2ccc(-c3nc4ccn5c(=O)[nH]nc5c4cc3-c3ccccc3)cc2)CCC1 [MK-2206]
IC50 (RT-112): 3.52 µM | IC50 (G-401): 1.3 µM | IC50 (OAW-28): 2.3 µM | IC50 (Hs-578T): 2.11 µM | IC50 (AGS): 2.72 µM | IC50 (T-24): 2.48 µM | IC50 (MDA-MB-361): 0.578 µM | IC50 (EFO-21): > 4 µM | IC50 (NCI-H1993): > 4 µM | IC50 (UACC-62): > 4 µM | IC50 (MeWo): > 4 µM | IC50 (SN12C): > 4 µM | IC50 (SNU-423): 2.89 µM | IC50 (P12-Ichikawa): 0.116 µM | IC50 (SW780): > 4 µM | IC50 (CWR22R): > 4 µM | IC50 (SW-620): > 4 µM | IC50 (EW-22): > 4 µM | IC50 (CAL-72): > 4 µM | IC50 (MIA PaCa-2): > 4 µM | IC50 (MEL-HO): > 4 µM | IC50 (Capan-2): > 4 µM | IC50 (HT1197): > 4 µM | IC50 (RO82-W-1): > 4 µM | IC50 (NCI-H1693): > 4 µM | IC50 (KYSE-410): > 4 µM | IC50 (A204): 2.84 µM | IC50 (TYK-nu): > 4 µM | IC50 (SW1417): > 4 µM | IC50 (HT-3): > 4 µM | IC50 (CAKI-1): > 4 µM | IC50 (Calu-3): > 4 µM | IC50 (BT-20): > 4 µM | IC50 (HEC-1): > 4 µM | IC50 (MDA-MB-175-VII): 0.137 µM | IC50 (GMS-10): > 4 µM | IC50 (SJRH30): 3.69 µM | IC50 (SK-OV-3): > 4 µM | IC50 (HSC-3): > 4 µM | IC50 (M059J): > 4 µM | IC50 (BHY): > 4 µM | IC50 (LN-405): > 4 µM
